Measured values from paper PMC5077133, “Towards Development of Small Molecule Lipid II Inhibitors as Novel Antibiotics” (PLoS ONE, 2016).

Columns and labels:
HeLa cells = test: Cytotoxicity against mammalian cells (MTS assay); assay type: cell-based
Method: The cytotoxicity concentration of antibacterial compounds that produces half maximal decrease in viability (CC50) against mammalian cells (HeLa, ATCC CCL-2.2) was determined as described. The effect of compounds on HeLa cell viability was assessed in triplicate by measuring the mitochondrial activity using MTS assays according to the manufacturer’s instructions (Cell Titer 96 proliferation assay, Promega). The cells were incubated for 72 hours in RPMI1640 medium containing the compounds at final concentrations ranging from 64 to 0.125 μg/ml. CC50 was determined using a standard curve of serially diluted untreated cells in each experiment.

A. baumanii ATCC 19606 = test: Antibacterial activity (MIC, broth dilution); assay type: cell-based, Acinetobacter baumanii; details: CLSI, in µg/mL
From the text: Staphylococcus aureus ATCC 29213, Escherichia coli ATCC 25922, Enterococcus faecalis ATCC 29212, Streptococcus pneumonia ATCC 49619 and Acinetobacter baumanii ATCC 19606 were obtained from Microbiologics (St. Cloud, MN). E. faecalis ATCC 51575, ATCC 51299 and REMEL C99707 and E. faecium ATCC 51559 (MDR), REMEL IH79985 and REMEL C110914 were generously provided by the Laboratory of Pathology, University of Maryland Baltimore School of Medicine. Unless stated otherwise, chemicals and reagents were purchased from Sigma.
(§1) Determination of the Minimal Inhibitory Concentrations (MIC) by dilution was carried out by broth dilution according to CLSI standards.

[1] = system: S. aureus HFH-30123 (MRSA); test: Antibacterial activity (MIC, broth dilution); assay type: cell-based; details: CLSI
Method: as §1

[2] = system: K. pneumoniae NR-15410 (KPC); test: Antibacterial activity (MIC, broth dilution); assay type: cell-based; details: CLSI
Method: as §1

P. aeruginosa PA01 = test: Antibacterial activity (MIC, broth dilution); assay type: cell-based; details: CLSI
Method: as §1

E. faecium EF1509 (VRE) = test: Antibacterial activity (MIC, broth dilution); assay type: cell-based; details: CLSI, in µg/mL
Method: as §1

E. cloacae ATCC 13047 = test: Antibacterial activity (MIC, broth dilution); assay type: cell-based; details: CLSI
Method: as §1

S. aureus MRSA 1094 = test: Antibacterial activity (MIC, broth dilution); assay type: cell-based; details: CLSI
Method: as §1

P. aeruginosa ATCC 27853 = test: Antibacterial activity (MIC, broth dilution); assay type: cell-based; details: CLSI
Method: as §1

P. aeruginosa X13273 = test: Antibacterial activity (MIC, broth dilution); assay type: cell-based; details: CLSI, in µg/mL
Method: as §1

[3] = system: K. pneumoniae NR-15411 (KPC); test: Antibacterial activity (MIC, broth dilution); assay type: cell-based; details: CLSI
Method: as §1

E. aerogenes ATCC 13048 = test: Antibacterial activity (MIC, broth dilution); assay type: cell-based; details: CLSI
Method: as §1

E. faecium F118 (VRE) = test: Antibacterial activity (MIC, broth dilution); assay type: cell-based; details: CLSI, in µg/mL
Method: as §1

[4] = Lipid II binding by Surface Plasmon Resonance; details: SPR, immobilized 3-Lipid II, 25°C
Method: Short-chain water-soluble Lipid II containing a lipid tail of three isoprene units was generated and purified essentially as described. Typically, M. flavus vesicles (120 μmol lipid-Pi) were incubated together with 500 μmol UDP-GlcNAc, 500 μmol UDP-MurNAC-pentapeptide and 400 μmol farnesyl phosphate in 100 mM Tris-HCl pH 8.0, 5 mM MgCl2. The incubation lasted two hours at room temperature for 3-P. The synthesis of 3-Lipid II was followed using RP-8 reversed phase TLC (Merck) developed in 75% methanol. For purification, the membranes were removed by centrifugation at 40,000 x g and the supernatant was collected and loaded on a C18 HPLC column and eluted with a linear gradient from 50 mM ammonium bicarbonate to 100% methanol in 30 minutes. Farnesyl-Lipid II (3-Lipid II) eluted at approximately 60% methanol. Its identity was confirmed by mass spectroscopy. Surface Plasmon Resonance binding experiments were carried out on a BIAcore T100 system (BIAcore Inc., Piscataway, NY) at 25°C. The assay buffer was 10 mM HEPES, 150 mM NaCl, 0.05% surfactant P20, pH 7.4 (± 3 mM EDTA) supplemented with 10% DMSO. 3-Lipid II (50 RUs) was immobilized on CM5 sensor chips using the amine-coupling chemistry recommended by the manufacturer. For initial determination of binding, compounds were introduced into the flow-cells (30 μl/min) in the running buffer at 10 μM. Resonance signals were corrected for nonspecific binding by subtracting the background of the control flow-cell. After each analysis, the sensor chip surfaces were regenerated with 50 mM NaOH for 30 s at a flow rate 100 μl/min, and equilibrated with the buffer prior to next injection. For binding kinetics studies, binding isotherms were analyzed with manufacturer-supplied software for BIAcore T100.

Compound | CC50% (72 h HeLa cells) (HeLa cells) | Antibacterial activity (MIC) A. baumanii ATCC 19606 (A. baumanii ATCC 19606) | Antibacterial activity (MIC) S. aureus HFH-30123 (MRSA) [1] | Antibacterial activity (MIC) K. pneumoniae NR-15410 (KPC) [2] | Antibacterial activity (MIC) P. aeruginosa PA01 (P. aeruginosa PA01) | Antibacterial activity (MIC) E. faecium EF1509 (VRE) (E. faecium EF1509 (VRE)) | Antibacterial activity (MIC) E. cloacae ATCC 13047 (E. cloacae ATCC 13047) | Antibacterial activity (MIC) S. aureus MRSA 1094 (S. aureus MRSA 1094) | Antibacterial activity (MIC) P. aeruginosa ATCC 27853 (P. aeruginosa ATCC 27853) | Antibacterial activity (MIC) P. aeruginosa X13273 (P. aeruginosa X13273) | Antibacterial activity (MIC) K. pneumoniae NR-15411 (KPC) [3] | Antibacterial activity (MIC) E. aerogenes ATCC 13048 (E. aerogenes ATCC 13048) | Antibacterial activity (MIC) E. faecium F118 (VRE) (E. faecium F118 (VRE)) | Kd [4]
CN(C)c1ccc(/C=C/C=C/c2cc(-c3ccc(Br)cc3)cc(-c3ccc(Br)cc3)[o+]2)cc1.F[B-](F)(F)F [6jc48-2] | 60.51 | >=64 | ≥ 64 µg/mL | ≥ 64 µg/mL | ≥ 64 µg/mL | 4 | ≥ 64 µg/mL | ≥ 64 µg/mL | ≥ 64 µg/mL | >=64 | ≥ 64 µg/mL | ≥ 64 µg/mL | 16 | 1.14 ± 0.3 µM
Cc1ccc(-c2cc(/C=C/C=C/c3ccc(N(C)C)cc3)[o+]c(-c3ccc(C)cc3)c2)cc1.F[B-](F)(F)F [6jc51-2] | <.78125 | 32 | 4 µg/mL | 64 µg/mL | ≥ 64 µg/mL | 0.5 | ≥ 64 µg/mL | 2 µg/mL | ≥ 64 µg/mL | >=64 | ≥ 64 µg/mL | ≥ 64 µg/mL | 2 | 9.5 ± 2 µM
CCc1ccc(-c2cc(/C=C/C=C/c3ccc(N(C)C)cc3)[o+]c(-c3ccc(CC)cc3)c2)cc1.F[B-](F)(F)F [6jc64-2] | <.78125 | >=64 | 8 µg/mL | ≥ 64 µg/mL | ≥ 64 µg/mL | 5.66 | ≥ 64 µg/mL | 8 µg/mL | ≥ 64 µg/mL | >=64 | ≥ 64 µg/mL | ≥ 64 µg/mL | 16 | 23.8 ± 4 µM
CCc1ccc(-c2cc(/C=C/c3c[nH]c4ccccc34)[o+]c(-c3ccc(CC)cc3)c2)cc1.F[B-](F)(F)F [6jc64-3] | 3.29 | >=64 | 4 µg/mL | 64 µg/mL | ≥ 64 µg/mL | 8 | 64 µg/mL | 5.66 µg/mL | ≥ 64 µg/mL | >=64 | 64 µg/mL | ≥ 64 µg/mL | 8 | 4.92 ± 0.5 µM
Cc1ccc(-c2cc(/C=C/c3cc4c5c(c3)CCCN5CCC4)[o+]c(-c3ccc(C)cc3)c2)cc1.F[B-](F)(F)F [6jc65-1] | <.78125 | 11.31 | 2 µg/mL | 64 µg/mL | 64 µg/mL | 2 | 64 µg/mL | 2.83 µg/mL | 64 µg/mL | 64 | ≥ 64 µg/mL | 32 µg/mL | 4 | 2.17 ± 0.2 µM
Cc1ccc(-c2cc(/C=C/c3cn(C)c4ccccc34)[o+]c(-c3ccc(C)cc3)c2)cc1.F[B-](F)(F)F [6jc65-2] | 0.94 | 32 | 2 µg/mL | 64 µg/mL | ≥ 64 µg/mL | 2 | 64 µg/mL | 2 µg/mL | ≥ 64 µg/mL | >=64 | ≥ 64 µg/mL | 64 µg/mL | 4 | 3.9 ± 0.4 µM
Cn1cc(/C=C/c2cc(-c3ccccc3)cc(-c3ccccc3)[o+]2)c2ccccc21.F[B-](F)(F)F [6jc66-1] | 1.36 | 45.25 | 4 µg/mL | ≥ 64 µg/mL | ≥ 64 µg/mL | 4 | ≥ 64 µg/mL | 2.83 µg/mL | ≥ 64 µg/mL | >=64 | ≥ 64 µg/mL | ≥ 64 µg/mL | 8 | 2.9 ± 0.3 µM
